# Test results published in publication PMC9030223, “MBP-11901 Inhibits Tumor Growth of Hepatocellular Carcinoma through Multitargeted Inhibition of Receptor Tyrosine Kinases” (Cancers, 2022).
# Where “and” joins values, the source holds several entries; their conditions need not be identical. Identical values can stand only once.
# Legend:
# C6 = assay: CCK-8 cell proliferation/cytotoxicity assay; format: cell-based; conditions: Rattus norvegicus, C6, 24 h
# Description: (§1) Cell proliferation was detected using the Cell Counting Kit-8 (CCK-8, Cat. CK04-13; Dojindo Laboratories, Kumamoto, Japan) according to the manufacturer’s instruction. To evaluate cytotoxicity, cells were seeded in a 96-well plate (FHC, 1 × 10^4 cells/well; Caki-2, PLC/PFR.5, and MCF 10A, 1 × 10^4 cells/well; AML12, HepG2, Hep3B, and Huh-7 1.2 × 10^4 cells/well; HeLa, HEK-293, A549, and PC-3, 1.5 × 10^4 cells/well; HT-29, MCF-7, C6, and NE-4C, 2 × 10^4 cells/well). After attachment and stabilization of cells for 24 h, the medium was switched with fresh containing various concentrations (0, 1, 5, 10, 25, 50, and 100 μM) of MBP-11901, and cells were incubated for 22 h. Next, CCK-8 solution was added to each well, and cells were incubated for another 2 h. Absorbance was then measured at 450 nm using a microplate reader (SpectraMax i3, Molecular Devices, San Jose, CA, USA). The IC50 and log IC50 values were calculated using GraphPad Prism (version 5.02; GraphPad PRISM software Inc. San Diego, CA, USA). All experiments were independently performed 3 times. The graph of log IC50 values represents average values.
# Caki-2 = assay: CCK-8 cell proliferation/cytotoxicity assay; format: cell-based; conditions: Homo sapiens, CAKI-2, 24 h
# Description: as §1
# [1] = system: FHC colon epithelial cells; assay: CCK-8 cell proliferation/cytotoxicity assay; format: cell-based; conditions: Homo sapiens, FHC normal cells, 24 h
# Description: as §1
# HEK-293 = assay: CCK-8 cell proliferation/cytotoxicity assay; format: cell-based; conditions: Homo sapiens, HEK293; HEK-293 normal cells, 24 h
# Description: as §1
# HT-29 = assay: CCK-8 cell proliferation/cytotoxicity assay; format: cell-based; conditions: Homo sapiens, HT-29, 24 h
# Description: as §1
# HeLa = assay: CCK-8 cell proliferation/cytotoxicity assay; format: cell-based; conditions: Homo sapiens, 24 h
# Description: as §1
# Hep3B = assay: CCK-8 cell proliferation/cytotoxicity assay; format: cell-based; conditions: Homo sapiens, 24 h treatment
# Description: as §1
# HepG2 = assay: CCK-8 cell proliferation/cytotoxicity assay; format: cell-based; conditions: Homo sapiens; HepG2, 24 h treatment
# Description: as §1
# Huh-7 = assay: CCK-8 cell proliferation/cytotoxicity assay; format: cell-based; conditions: Homo sapiens; Huh-7, 24 h treatment
# Description: as §1
# MCF-7 = assay: CCK-8 cell proliferation/cytotoxicity assay; format: cell-based; conditions: Homo sapiens, MCF7; MCF-7, 24 h
# Description: as §1
# [2] = system: MCF10a breast epithelial cells; assay: CCK-8 cell proliferation/cytotoxicity assay; format: cell-based; conditions: Homo sapiens, MCF-10A; MCF10a normal cells, 24 h
# Description: as §1
# NE-4C = assay: CCK-8 cell proliferation/cytotoxicity assay; format: cell-based; conditions: Mus musculus; NE-4C normal cells, 24 h
# Description: as §1
# PC3 = assay: CCK-8 cell proliferation/cytotoxicity assay; format: cell-based; conditions: Homo sapiens, PC-3; PC3, 24 h
# Description: as §1
# PLC/PRF5 = assay: CCK-8 cell proliferation/cytotoxicity assay; format: cell-based; conditions: Homo sapiens, PLC-PRF-5; PLC/PRF5, 24 h treatment
# Description: as §1
# HepG2 cells [3] = assay: Flow cytometry analysis of cell death (sub-G1); format: cell-based, human; conditions: 50 μM
# Description: Approximately 1.5 × 10^6 HepG2 cells were suspended in […] PBS, and then […] 95% ethanol was added while vortexing. […] Incubation was continued at 37 °C for 30 min. Cellular DNA was then stained by applying […] propidium iodide (50 μg/mL) for 30 min at 25 °C. Stained cells were analyzed on a FACScan flow cytometer for relative DNA content based on increased red fluorescence.
# HepG2 cells [4] = assay: Colony formation assay; format: cell-based, human
# Description: HepG2 cells were seeded in a 6-well plate at a density of 2 × 10^4 cells/well and incubated for 24 h. Cells were treated with MBP-11901 and sorafenib for 2 h and media was changed with fresh one. Cells were incubated for 8 d and the medium was replaced once every 2–3 d. The medium was carefully removed, cells were washed with PBS, and fixed with 100% methanol for 30 min. After removing methanol, cells were stained with 0.5% (w/v) crystal violet for 30 min, and washed with tap water. The plate was dried at 25 °C and images were captured under a microscope (Nikon Eclipse Ts2, Tokyo, Japan). The stained area was automatically measured using ImageJ. This experiment was independently performed 3 times. The area of the colony was calculated as a percentage of the total area of the well.
# FLT3(D835H) = biological target: T1, FLT3(D835H) (Homo sapiens, UniProt P36888, D835H); assay: KINOMEscan competition binding; conditions: 10000 nM; lower = stronger binding; read-out: % Control
# T1 construct: purchased Eurofins DiscoverX Corporation
# Description: (§2) The profiling of MBP-11901 against a panel of 468 kinases was performed by DiscoverX using KINOMEscan technology, an active-site-dependent competition-binding assay (Eurofins DiscoverX Corporation, San Diego, CA, USA). Binding constants (Kd) were calculated by DiscoverX using KdELECT technology, a widely used assay for comparing selectivity across the kinome. The DiscoverX platform reports the thermodynamic Kd to facilitate direct comparison of inhibitor affinity across the kinome, independent of ATP concentration.
# FLT3(D835V) = biological target: T2, FLT3(D835V) (Homo sapiens, UniProt P36888, D835V); assay: KINOMEscan competition binding; conditions: 10000 nM; lower = stronger binding; read-out: % Control
# T2 construct: purchased Eurofins DiscoverX Corporation
# Description: as §2
# FLT3(D835Y) = biological target: T3, FLT3(D835Y) (Homo sapiens, UniProt P36888, D835Y); assay: KINOMEscan competition binding; conditions: 10000 nM; lower = stronger binding; read-out: % Control
# T3 construct: purchased Eurofins DiscoverX Corporation
# Description: as §2
# FLT3- autoinhibited = biological target: T4, FLT3- autoinhibited (Homo sapiens, UniProt P36888); assay: KINOMEscan competition binding; conditions: 10000 nM; lower = stronger binding; read-out: % Control
# T4 construct: purchased Eurofins DiscoverX Corporation
# Description: as §2
# HepG2 xenograft tumor = assay: HepG2 subcutaneous xenograft, dose study (19 d); conditions: for Toxic deaths/total: 19 d; for Body weight loss rate (%) / Tumor growth inhibition rate (%): day 19; for tumor weight per mouse: after 19 d, vehicle control 0.31 ± 0.089 g; for average tumor volume: end of 9 administrations, start 200 mm^3, saline approx. 1000 mm^3
# [5] = tumors, compared with vehicle control
smiles,measurement,setting,value
NCC(N)C(=O)Nc1ccc(-c2nc3ccccc3s2)cc1 (stereo not drawn) [MBP-11901],IC50,C6,77.8 ± 9.73 µM
same,IC50,Caki-2,75.7 ± 3.44 µM
same,IC50,[1],72.7 ± 1.99 µM
same,IC50,HEK-293,68.2 ± 2.79 µM
same,IC50,HT-29,29.86 ± 0.27 µM
same,IC50,HeLa,41.9 ± 3.38 µM
same,IC50,Hep3B,16.8 ± 0.88 µM
same,IC50,HepG2,5.16 ± 1.37 µM
same,IC50,Huh-7,29.4 ± 1.13 µM
same,IC50,MCF-7,65.9 ± 12.3 µM
same,IC50,[2],65.1 ± 1.88 µM
same,IC50,NE-4C,36.8 ± 3.66 µM
same,IC50,PC3,95 ± 0.82 µM
same,IC50,PLC/PRF5,18.6 ± 0.81 µM
same,SubG1,HepG2 cells [3]; 8 h,10.26%
same,SubG1,HepG2 cells [3]; 16 h,17.39%
same,SubG1,HepG2 cells [3]; 24 h,34.68%
same,colony formation,"HepG2 cells [4]; HepG2, 5 μM",significant reduction
same,colony growth,"HepG2 cells [4]; HepG2, high concentrations, compared with sorafenib",almost no colony growth was observed
same,remaining binding at 10 µM,FLT3(D835H),33%
same,remaining binding at 10 µM,FLT3(D835V),1.6%
same,remaining binding at 10 µM,FLT3(D835Y),11%
same,remaining binding at 10 µM,FLT3- autoinhibited,19%
same,Toxic deaths/total,HepG2 xenograft tumor; 40 mg/kg oral once every 2 d,0/8
same,Body weight loss rate (%),HepG2 xenograft tumor; 40 mg/kg oral once every 2 d,2.00 ± 2.47 %
same,Tumor growth inhibition rate (%),HepG2 xenograft tumor; 40 mg/kg oral once every 2 d,61.41 ± 0.45%
same,tumor weight per mouse,HepG2 xenograft tumor; 40 mg/kg,0.082 ± 0.063 g
same,average tumor volume,HepG2 xenograft tumor; 40 mg/kg,approximately 350 mm^3
same,animals in which the tumor completely disappeared,HepG2 xenograft tumor; 60 mg/kg group,3 out of 8
same,Toxic deaths/total,HepG2 xenograft tumor; 60 mg/kg oral once every 2 d,0/8
same,Body weight loss rate (%),HepG2 xenograft tumor; 60 mg/kg oral once every 2 d,1.50 ± 1.97 %
same,Tumor growth inhibition rate (%),HepG2 xenograft tumor; 60 mg/kg oral once every 2 d,85.26 ± 0.36%
same,tumor weight per mouse,HepG2 xenograft tumor; 60 mg/kg,0.025 ± 0.035 g
same,average tumor volume,HepG2 xenograft tumor; 60 mg/kg,~150 mm^3
same,animals in which the tumor completely disappeared,HepG2 xenograft tumor; 82 mg/kg group,4 out of 8
same,Toxic deaths/total,HepG2 xenograft tumor; 82 mg/kg oral once every 2 d,0/8
same,Body weight loss rate (%),HepG2 xenograft tumor; 82 mg/kg oral once every 2 d,1.78 ± 4.40 %
same,Tumor growth inhibition rate (%),HepG2 xenograft tumor; 82 mg/kg oral once every 2 d,92.54 ± 0.02% and 92.54 ± 0.0 %
same,tumor weight per mouse,HepG2 xenograft tumor; 82 mg/kg,0.011 ± 0.009 g
same,average tumor volume,HepG2 xenograft tumor; 82 mg/kg,~70 mm^3
same,apoptosis in tumors (cleaved caspase-3),HepG2 xenograft tumor; [5],high level of apoptosis
same,proliferation of tumor cells (Ki-67),HepG2 xenograft tumor; [5],significant reduction
